Source: the supplement of paper PMC10307832

Assays:
Test in all cases: relative viability (nuclei count vs DMSO), 5 days (fraction); higher = more cells survive
[1] = compound: CC1=CC(=NN1)NC2=CC(=NC(=N2)/C=C/C3=CC=CC=C3)N4CCN(CC4)C + CCNC(=O)c1noc(-c2cc(C(C)C)c(O)cc2O)c1-c1ccc(CN2CCOCC2)cc1 [Luminespib] (partner 0.01 µM)
Summary of the method: (§1)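 Lung cancer cell lines, seeded in 1536-well plates, were treated the following day by pin tool with a single drug or with five library-drug doses (not always all listed) in √10 steps on top of a fixed anchor-drug dose. Cells were fixed and nuclei stained in one step after 5 days, and nuclei were counted. Relative viability is the nuclei count for treated wells divided by that for vehicle wells, reported as medians of duplicate plates.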

[2] = compound: CC1=CC(=NN1)NC2=CC(=NC(=N2)/C=C/C3=CC=CC=C3)N4CCN(CC4)C + Cc1nc(NC(=O)N2CCC[C@H]2C(N)=O)sc1-c1ccnc(C(C)(C)C(F)(F)F)c1 [Alpelisib] (partner 2 µM)
Summary of the method: as §1

Bortezomib + Crizotinib = compound: CC(C)C[C@H](NC(=O)[C@H](Cc1ccccc1)NC(=O)c1cnccn1)B(O)O [Bortezomib] + C[C@@H](Oc1cc(-c2cnn(C3CCNCC3)c2)cnc1N)c1c(Cl)ccc(F)c1Cl [Crizotinib] (partner 1 µM)
Summary of the method: as §1

Bortezomib + Foretinib = compound: CC(C)C[C@H](NC(=O)[C@H](Cc1ccccc1)NC(=O)c1cnccn1)B(O)O [Bortezomib] + COc1cc2c(Oc3ccc(NC(=O)C4(C(=O)Nc5ccc(F)cc5)CC4)cc3F)ccnc2cc1OCCCN1CCOCC1 [Foretinib] (partner 0.25 µM)
Summary of the method: as §1

Cell Line	relative viability ([1]; first compound 0.08 µM)	relative viability ([1]; first compound 0.253 µM)	relative viability ([1]; first compound 0.8 µM)	relative viability ([1]; first compound 2.53 µM)	relative viability ([1]; first compound 8 µM)	relative viability ([2]; first compound 0.08 µM)	relative viability ([2]; first compound 0.253 µM)	relative viability ([2]; first compound 0.8 µM)	relative viability ([2]; first compound 2.53 µM)	relative viability ([2]; first compound 8 µM)	relative viability (Bortezomib + Crizotinib; first compound 0.0002 µM)	relative viability (Bortezomib + Crizotinib; first compound 0.000632 µM)	relative viability (Bortezomib + Crizotinib; first compound 0.002 µM)	relative viability (Bortezomib + Crizotinib; first compound 0.006325 µM)	relative viability (Bortezomib + Crizotinib; first compound 0.02 µM)	relative viability (Bortezomib + Foretinib; first compound 0.0002 µM)	relative viability (Bortezomib + Foretinib; first compound 0.000632 µM)	relative viability (Bortezomib + Foretinib; first compound 0.002 µM)	relative viability (Bortezomib + Foretinib; first compound 0.006325 µM)	relative viability (Bortezomib + Foretinib; first compound 0.02 µM)
NCI-H2405	0.845	0.827	0.655	0.526	0.186	0.687	0.6	0.983	0.414	0.148	0.88	0.83	0.834	0.24	0.15	1.02	1.05	0.86	0.271	0.188
NCI-H3122	0.0829	0.0907	0.096	0.0908	0.0887	0.769	0.799	0.902	0.621	0.257	0.252	0.264	0.287	0.275	0.182	0.889	0.882	0.994	0.693	0.0999
PC-3 [JPC-3]	0.684	0.834	0.736	0.686	0.549	1.08	1.15	1.04	1	0.78	1.01	0.98	0.726	0.934	0.133	1.04	1.05	0.346	0.163	0.121
PC-14	0.169	0.158	0.12	0.121	0.0829	0.915	0.85	0.322	0.749	0.124	0.935	0.935	0.947	0.359	0.0821	1.04	1.03	1.02	0.588	0.159
RERF-LC-KJ	1.33	1.2	0.944	0.269	0.264	0.788	0.978	0.828	0.573	0.314	0.846	0.85	0.84	0.271	0.178	0.944	0.886	0.929	0.761	0.221
SK-LU-1	0.204	0.192	0.136	0.148	0.0748	1.05	0.972	0.636	0.223	0.113	0.793	0.912	0.626	0.173	0.136	0.742	0.86	0.67	0.128	0.112
SK-MES-1	0.61	0.888	0.391	0.144	0.131	0.882	0.853	0.958	0.623	0.131	0.967	0.994	0.935	0.261	0.161	1.01	0.946	0.967	0.632	0.241
SW 1573	0.421	0.259	0.179	0.105	0.0707	0.886	1.07	0.785	0.499	0.124	0.851	0.82	0.631	0.181	0.0539	0.943	0.907	1.02	0.327	0.0926
UMC-11	0.903	0.996	0.715	0.182	0.125	0.948	0.963	0.404	0.13	0.103	0.503	0.63	0.591	0.225	0.0917	0.801	0.97	0.96	0.449	0.175
